ChEMBL document CHEMBL4818998, “Melatonin derivatives combat with inflammation-related cancer by targeting the Main Culprit STAT3” (Eur J Med Chem, 2021)
The source made the active and inactive calls. The rule behind the calls is not given here.

Key:
[1] = tested on: HCT-116; experiment: Induction of cell cycle arrest in human HCT116 cells assessed as accumulation of cells at G0/G1 phase at 20 uM measured after 48 hrs by propidium iodide staining based flow cytometry analysis (reference value: 70.45%); format: functional
[2] = tested on: MGC-803; experiment: Cytotoxicity against human MGC-803 cells assessed as reduction in cell viability at <=10 uM measured after 48 hrs by CCK8 assay; format: cell-based; settings: mgc-803, 48 h
[3] = tested on: MCF7; experiment: Antiproliferative activity against human MCF7 cells assessed as inhibition of cell proliferation measured after 72 hrs by MTT assay; format: functional, cell-based; settings: MCF7, 72 h
[4] = biological target: Signal transducer and activator of transcription 3 (Homo sapiens) (UniProt P40763); experiment: Inhibition of STAT3 in human HCT-116 cells assessed as decrease in Bcl-2 expression at 2.5 to 10 uM measured after 48 hrs by western blot assay; format: cell-based; settings: dose 2.5-10 µM
[5] = tested on: HCT-116; experiment: Induction of apoptosis in human HCT-116 cells assessed as plasmatorrhexis at 2.5 to 15 uM measured after 48 hrs by Giemsa staining method; format: functional, cell-based; settings: dose 2.5-15 µM
[6] = Ratio of AUC (0 to t) to observed AUC (0 to infinity) in Sprague-Dawley rat at 100 mg/kg, ig measured for 24 hrs by LC-MS analysis; format: ADME, organism-based; settings: in vivo, po
[7] = biological target: Signal transducer and activator of transcription 3 (Homo sapiens) (UniProt P40763); experiment: Inhibition of STAT3 in human MGC-803 cells assessed as decrease in STAT3 phosphorylation at 4 to 16 uM measured after 48 hrs by western blot assay; format: cell-based; settings: dose 4-16 µM
[8] = biological target: Signal transducer and activator of transcription 3 (Homo sapiens) (UniProt P40763); experiment: Inhibition of STAT3 in human MGC-803 cells assessed as decrease in Bcl-2 expression at 4 to 16 uM measured after 48 hrs by western blot assay; format: cell-based; settings: dose 4-16 µM
[9] = Toxicity in po dosed Kunming mouse; format: organism-based; settings: in vivo
[10] = Toxicity in Kunming mouse assessed as feeding frequency and amount at 1000 mg/kg, ig measured for 14 days; format: organism-based; settings: in vivo, po, 336 h, time 14 day
[11] = tested on: HCT-116; experiment: Induction of apoptosis in human HCT-116 cells assessed as late apoptotic cells at 10 uM measured after 48 hrs by Annexin V-FITC/PI staining based flow cytometry (reference value: 1.42%); format: functional
[12] = Observed AUC (0 to infinity) in Sprague-Dawley rat at 100 mg/kg, ig measured for 24 hrs by LC-MS analysis; format: ADME, organism-based; set-up: route intragastric, time 24 hrs, dose 100 mg/kg; settings: in vivo, po
[13] = tested on: MGC-803; experiment: Antiproliferative activity against human MGC-803 cells assessed as decrease in cell population at S-phase at 2 to 16 uM measured after 24 hrs by EdU incorporation based fluorescence microscopic analysis; format: functional; settings: dose 2-16 µM
[14] = Toxicity in Kunming mouse assessed as hair condition at 1000 mg/kg, ig measured for 14 days; format: organism-based; settings: in vivo, po, 336 h, time 14 day
[15] = tested on: HCT-116; experiment: Induction of apoptosis in human HCT-116 cells assessed as necrotic cells at 10 uM measured after 48 hrs by Annexin V-FITC/PI staining based flow cytometry (reference value: 1.5%); format: functional
[16] = tested on: MGC-803; experiment: Cytotoxicity against human MGC-803 cells assessed as reduction in cell viability at <20 uM measured after 24 hrs by CCK8 assay; format: cell-based; settings: mgc-803, 24 h
[17] = tested on: HCT-116; experiment: Induction of apoptosis in human HCT-116 cells assessed as viable cells at 5 uM measured after 48 hrs by Annexin V-FITC/PI staining based flow cytometry (reference value: 94.9%); format: functional; settings: read-out: Activity
[18] = biological target: Signal transducer and activator of transcription 3 (Homo sapiens) (UniProt P40763); experiment: Inhibition of STAT3 in human MGC-803 cells assessed as inhibition of nuclear translocation of STAT3 at 10 uM measured after 3 hrs by Hoechst/fluorochrome-conjugated antibody staining based confocal laser microscopy; format: cell-based
[19] = Toxicity in Kunming mouse assessed as animal activity at 1000 mg/kg, ig measured for 14 days; format: organism-based; settings: in vivo, po, 336 h, time 14 day
[20] = tested on: HCT-116; experiment: Induction of apoptosis in human HCT-116 cells assessed as late apoptotic cells at 20 uM measured after 48 hrs by Annexin V-FITC/PI staining based flow cytometry (reference value: 1.42%); format: functional
[21] = tested on: MGC-803; experiment: Induction of apoptosis in human MGC-803 cells at 2.5 to 20 uM measured after 48 hrs by Annexin V-FITC/PI staining based flow cytometry; format: functional, cell-based; settings: dose 2.5-20 µM
[22] = tested on: HCT-116; experiment: Induction of apoptosis in human HCT-116 cells assessed as necrotic cells at 5 uM measured after 48 hrs by Annexin V-FITC/PI staining based flow cytometry (reference value: 1.5%); format: functional
[23] = tested on: HCT-116; experiment: Induction of apoptosis in human HCT-116 cells assessed as early apoptotic cells at 10 uM measured after 48 hrs by Annexin V-FITC/PI staining based flow cytometry (reference value: 2.14%); format: functional
[24] = tested on: MGC-803; experiment: Downregulation of STAT3 expression in human MGC-803 cells at 4 to 16 uM measured after 48 hrs by western blot assay; format: functional, cell-based; settings: dose 4-16 µM
[25] = tested on: HCT-116; experiment: Induction of apoptosis in human HCT-116 cells assessed as downregulation of cytochrome C expression at 2.5 to 10 uM measured after 48 hrs by western blot assay; format: functional, cell-based; settings: dose 2.5-10 µM
[26] = tested on: HCT-116; experiment: Cytotoxicity against human HCT-116 cells assessed as reduction in cell viability at <=20 uM measured after 48 hrs by CCK8 assay; format: cell-based; settings: hct-116, 48 h
[27] = Cmax in Sprague-Dawley rat at 100 mg/kg, ig measured for 24 hrs by LC-MS analysis; format: ADME, organism-based; set-up: route intragastric, time 24 hrs, dose 100 mg/kg; settings: in vivo, po
[28] = Cytotoxicity against human HCT-116 cells assessed as cell viability at <36 uM measured after 24 hrs by CCK8 assay; format: cell-based; settings: read-out: Activity
[29] = biological target: Signal transducer and activator of transcription 3 (Homo sapiens) (UniProt P40763); experiment: Inhibition of STAT3 in human HCT-116 cells assessed as inhibition of nuclear translocation of STAT3 at 10 uM measured after 3 hrs by Hoechst/fluorochrome-conjugated antibody staining based confocal laser microscopy; format: cell-based
[30] = tested on: HCT-116; experiment: Antimetastatic activity against human HCT-116 cells assessed as inhibition of cell migration measured after 36 hrs by transwell assay; format: functional, cell-based; settings: dose 2.5-15 µM
[31] = tested on: HCT-116; experiment: Induction of apoptosis in human HCT-116 cells assessed as early apoptotic cells at 2.5 uM measured after 48 hrs by Annexin V-FITC/PI staining based flow cytometry assay (reference value: 2.14%); format: functional
[32] = Cytotoxicity against LPS-stimulated mouse RAW264.7 cells assessed as cell viability at 5 to 20 microM measured after 24 hrs; format: cell-based; settings: LPS-stimulated RAW264.7 cells, dose 5-20 µM, read-out: Activity
[33] = tested on: A549; experiment: Antiproliferative activity against human A549 cells assessed as inhibition of cell proliferation measured after 72 hrs by MTT assay; format: functional, cell-based; settings: A549, 72 h
[34] = tested on: HCT-116; experiment: Induction of apoptosis in human HCT-116 cells assessed as chromatin pyknosis at 2.5 to 15 uM measured after 48 hrs by Giemsa staining method; format: functional, cell-based; settings: dose 2.5-15 µM
[35] = tested on: RAW264.7; experiment: Anti-inflammatory activity against mouse RAW264.7 cells assessed as decrease in LPS-induced IL-6 secretion measured after 24 hrs by ELISA; format: functional, cell-based; settings: dose 5-20 µM
[36] = Toxicity in Kunming mouse assessed as animal survival at 1000 mg/kg, ig measured for 14 days; format: organism-based; settings: in vivo, po, 336 h, time 14 day
[37] = tested on: SGC-7901; experiment: Antiproliferative activity against human SGC-7901 cells assessed as inhibition of cell proliferation measured after 72 hrs by MTT assay; format: functional, cell-based; settings: SGC-7901, 72 h

Sequence of Signal transducer and activator of transcription 3 (Homo sapiens) (P40763 whole entry): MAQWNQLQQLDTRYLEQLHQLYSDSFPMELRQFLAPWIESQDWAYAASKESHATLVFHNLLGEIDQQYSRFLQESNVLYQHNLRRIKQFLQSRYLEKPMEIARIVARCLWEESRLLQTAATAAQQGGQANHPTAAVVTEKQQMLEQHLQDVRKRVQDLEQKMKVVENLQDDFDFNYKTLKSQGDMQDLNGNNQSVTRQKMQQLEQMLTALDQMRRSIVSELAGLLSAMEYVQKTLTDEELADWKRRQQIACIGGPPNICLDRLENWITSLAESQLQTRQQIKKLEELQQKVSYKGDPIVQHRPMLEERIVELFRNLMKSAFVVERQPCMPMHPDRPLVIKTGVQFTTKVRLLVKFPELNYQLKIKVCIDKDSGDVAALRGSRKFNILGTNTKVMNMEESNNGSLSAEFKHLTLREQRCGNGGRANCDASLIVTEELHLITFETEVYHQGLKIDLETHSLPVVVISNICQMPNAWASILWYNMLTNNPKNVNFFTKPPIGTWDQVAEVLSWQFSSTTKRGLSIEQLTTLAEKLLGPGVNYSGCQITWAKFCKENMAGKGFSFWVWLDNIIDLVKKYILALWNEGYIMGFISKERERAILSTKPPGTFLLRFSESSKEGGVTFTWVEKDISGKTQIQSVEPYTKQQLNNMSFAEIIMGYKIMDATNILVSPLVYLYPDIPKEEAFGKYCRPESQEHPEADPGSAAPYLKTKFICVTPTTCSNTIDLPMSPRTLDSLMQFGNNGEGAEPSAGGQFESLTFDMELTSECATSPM

SMILES: Cc1c(Cl)cccc1Nc1ccccc1C(=O)NCCc1c[nH]c2ccccc12
- Activity [1]: 84.74%
- Activity [2]: Non-Toxic
- IC50 [3]: 12.8 µM
- inhibition [4]: Active
- Activity [5]: Active
- Ratio AUC [6]: 0.87
- inhibition [7]: Active
- inhibition [8]: Active
- LD50 [9]: > 1000 mg/kg
- Activity [10]: Non-Toxic
- Activity [11]: 6.12%
- AUC(0-inf) [12]: 1930 ng·h/mL
- Activity [13]: Active
- Activity [14]: Non-Toxic
- Activity [15]: 2.42%
- Activity [16]: Non-Toxic
- viability at 5 µM [17]: 87.8%
- inhibition [18]: Active
- Activity [19]: Non-Toxic
- Activity [20]: 8.95%
- Activity [21]: inactive
- Activity [22]: 2.81%
- Activity [23]: 33%
- inhibition [24]: Active
- Activity [25]: Active
- Activity [26]: Non-Toxic
- Cmax [27]: 150 ng/mL
- viability at 24 h [28]: ≥ 80%
- inhibition [29]: Active
- Activity [30]: Dose-Dependent Effect
- Activity [31]: 3.48%
- viability at 24 h [32]: > 80%
- IC50 [33]: 18.6 µM
- Activity [34]: Active
- Activity [35]: Dose-Dependent Effect
- Activity [36]: Non-Toxic
- IC50 [37]: 15.5 µM
